According to patent US20210363254A1, “PHARMACEUTICAL COMBINATIONS” (Novartis AG, priority 2018, published 2021):
Read-outs that look alike come from different tables or passages of the source.

Columns and labels:
[1] = tested on: human HSAX2655 (liposarcoma) PDX; assay: TGI PK/PD modelling, human HSAX2655 (liposarcoma) PDX rat; type: in vivo
Procedure: Compartmental population PK modeling of NVP-HDM201 was used to estimate the individual average plasma concentration for Cycle 1 and to allow comparison with preclinical average concentration for tumor stasis derived by PK/PD tumor growth modeling. […] The dashed line at concentration of ≈19 ng/mL represents average tumor stasis determined from PK/PD modeling of preclinical data from a liposarcoma (HSAX2655) patient-derived xenograft rat model.

[2] = tested on: immune cells in Colon 26 tumors; assay: Immune profiling of Colon 26 tumors and draining lymph nodes by flow cytometry (7628 and 8063 Colon 26-XPD); type: in vivo, mouse; details: 40 mg/kg every 3h for 3 times on days 0 and 7
Procedure: HDM201 modulated profiles of immune cells in Colon 26 tumors. Increases in % CD11c^+/CD45^+ myeloid cells (A), % CD8^+/CD45^+ T cells (B), PDL1 MFI in CD45^− cells (C), and % PD1^+/CD45^+ lymphocytes (d). Colon 26 cells were implanted into the right flank of Balb/c mice. When tumors reached ˜60 mm^3, mice were randomized and treated with HDM201 at 40 mg/kg every 3h for 3 times on days 0 and 7. Mice were euthanized, and tumors were collected and processed for FACS analysis on Days 5 and 12 post first dose.
HDM201 modulated profiles of immune cells in Colon 26 tumors. Increases in % CD103^+CD11c^+ DCs (A), % Tbet*EOMES-CD8+/CD45^+ T cells (B), and CD8/Treg ratio (C). Colon 26 Cells were implanted into right flank of Balb/c mice. When tumors reached ˜100 mm^3, mice were randomized and treated with HDM201 at 40 mg/kg every 3h for 3 times on days 0 and 7. Mice were euthanized; tumors and draining lymph nodes were collected and processed for FACS analysis on Days 5 and 12 post first dose.
Colon 26 cells were harvested at 80-95% confluence, washed, and re-suspended in cold PBS at a concentration of 2×10^6 cells/ml. Finally, 0.2×10^6 cells in a total volume of 100 μL were implanted subcutaneously (sc) into the upper right flank of naive Balb/c mice.
The tumor infiltrating lymphocytes (TILs) from tumors were analyzed by flow cytometry for both studies ([…] Colon 26-XPD and 8063 Colon 26-XPD). Lymph node lymphocytes were analyzed for 8063 Colon 26-XPD. The samples were plated into two separate 96 well plates, one for T cell staining (Table Ex3.5) and one for myeloid cell staining (Table Ex3.6).
For Study 7628 Colon26-XPD, tumors and spleens were collected from mice on Day 5 and Day 12 post initiation of treatment. Single cell suspensions were generated according to RDS-2016-00163. Briefly, the tissues were minced with scissors followed by mechanical homogenization in dissociation buffer containing RPMI 1640 (Gibco, Life Technologies) with Liberase™ research grade collagenase (Roche) and DNase 1 recombinase (Roche) using the GentleMAX (Miltenyi). Following a 15 minute incubation at 37° C. in a water bath, the homogenates were quenched with 10% FBS and filtered on a […] cell strainer (Falcon). At the end of this process, the single cell suspension of cells was obtained and 2 million cells were plated into 96-well plates for staining with either a T cell or myeloid cell panel of antibodies.
For Study 8063 Colon 26-XPD, tumors and lymph nodes were collected and then processed both mechanically and enzymatically into a single cell suspension according to RDS-2017-00141. The digestion process involves 4-5 consecutive digestion cycles with new digestion buffer containing DNase I (Roche), Collagenase P (Roche), and dispase (Gibco) in each cycle. At the end of this process, cell suspension was filtered on a […] cell strainer to obtain single cell suspension. Two million cells were plated into 96 well plates for staining of T cell panel or myeloid cell panel antibodies.
Following this, the samples were blocked with a 1:50 dilution of mouse Fc block (Miltenyi Biotec) for 30 minutes on ice. The samples were spun for 5 minutes at 1500 rpm and then stained with a fluorochrome-conjugated surface antibody mix as shown in Table Ex3.5 and Ex3.6 for 60 minutes. During the blocking and staining procedures, cells were maintained at 4° C. and protected from light.
For intracellular staining of T cells, after surface staining, the plates were spun again for 5 minutes at 1500 rpm, and then the cells were fixed and permeabilized overnight using a fix/perm kit (eBioscience). The cells were washed with a permeabilization buffer and then stained with the intracellular antibodies for 1 hour at 4° C. in the dark. The plates were washed twice in permeabilization buffer and suspended in 200 μl PBS. Data acquisition was performed using the LSRFortessa™ (BD Biosciences).
Analysis was performed after each run using FLOWJO v10.0.7 software from Treestar. […]

## COc1ncc(-c2nc3c(n2C(C)C)[C@H](c2ccc(Cl)cc2)N(c2cc(Cl)cn(C)c2=O)C3=O)c(OC)n1 [HDM201, (S)-5-(5-Chloro-1-methyl-2-oxo-1,2-dihydro-pyridin-3-yl)-6-(4-chloro-phenyl)-2-(2,4-dimethoxy-pyrimidin-5-yl)-1-isopropyl-5,6-dihydro-1H-pyrrolo[3,4-d]imidazol-4-one]
[1]
  Average concentration for tumor stasis: 19 ng/mL
[1]; listed as NVP-HDM201
  Average concentration for tumor stasis: ≈ 19 ng/mL
[2]
  % CD103+CD11+ DCs: increased
  % PD1+CD45+ cells: increased
  CD8/Treg ratio: increased
  PDL1 expression (MFI) in CD45− cells: induced
  newly primed % Tbet+EOMES−CD8+/CD45+ T cells: increased
[2]; Days 5 and 12
  % CD11C+CD45+ cells in tumors: increased
  CD8 T cells in tumors: increased
